Data on 2 sequences can be found in patent US10494410B2, “Inhibitor Peptides of ERK-type MAP kinase” (Universite Pierre Et Marie Curie, priority 2005, dated 2019).

In one data set the test system is Elk-1. Kind of data set: Serum-induced P-Elk-1 in HEK cells, immunocytochemistry. The data set is classed as cell-based. The settings on record: peptide 10 μM for 40 minutes, serum 20 minutes. The protocol:
HEK cells are placed in the presence of the peptide P2 (FIG. 4, middle panels) or P1 (FIG. 4, right panels), at the concentration of 10 μM for 40 minutes. Nontreated cells (without peptide) are used as controls (FIG. 4, left panels).
The cells are then treated for 20 minutes using fetal calf serum (serum) in order to activate the MAP kinase/ERK pathway.
The corresponding nuclei are visualized by means of the same star on the panels of the third line, marked Hoechst.

A further data set relates to HEK293 cells. Briefly: Cell penetration and intracellular localization of FITC-coupled peptide in HEK293 cells (fluorescence, Hoechst nuclei). The data set is classed as cell-based. The settings on record: unlabeled peptide, statement in Example 1; cells not specified. The protocol: HEK293 cells are placed in the presence of the peptide F2 at various concentrations (1 mM stock solution in distilled water, then dilutions to 25, 50 and 100 μM in DMEM culture medium), for 15, 30 or 60 minutes, continuously. The cell nuclei are labeled using Hoechst dye (left panel), and the peptide F2 is visualized by means of the FITC label (middle panel). […] The labeled cell nuclei are shown on the left panels, the peptide F2 on the middle panels and the superimposition of these two labelings is represented on the right panels (panels marked fusion).
HEK293 cells are placed in the presence of the peptide F1 at various concentrations (1 mM stock solution in distilled water, then dilutions to 25, 50 and 100 μM in
DMEM culture medium) for 15, 30 or 60 minutes, continuously. The cell nuclei are labeled using Hoechst dye, and the peptide F1 is visualized by means of the FITC label.

Ends that are not written are not given here.

As for “GRKKRRQRRRCCTLWQFLLHLLLDSPAKLSFQFPSGSAQVHI (sequence which inhibits the interaction between Elk 1 and ERK) [Peptide P1, HIV-TAT penetrating peptide, CC cleavage site, NES of Net, FXFP docking domain of Elk-1]”, the “induction of P-Elk-1 (phosphorylation of Elk-1) in response to serum” value in the data set with Elk-1 was “not and also in the presence of serum and of the peptide P1”. Also, the cell penetration result with HEK293 cells was “penetrates into the cells”.
Take “GRKKRRQRRRPPSPAKLSFQFPSGSAQVHI [Peptide P2]”: in the data set on HEK293 cells, the cell penetration result is reported as “penetrates into the cells”.
